# Measurements reported in patent US11414398B2, “Selective organic cation transporters inhibitors for the treatment of depressive disorders” (priority 2017, dated 2022).
# “Also recorded” adds a separate entry of the source.
# Experiments:
# [1] = Metabolic conversion in microsomal fraction; format: in vitro ADME; conditions: 100 μM, rat liver microsomes 1 mg protein/mL, NADPH generating system, 37° C.
# Procedure: Method. […] The reactions were stopped by adding one-half volume of CH3CN containing 8% CH3COOH and the proteins were removed by centrifugation at 13000 g. […] B=CH3CN/HCOOH (999:1)) at 200 μL/min. Mass spectra were obtained by electrospray ionization (ESI) in positive ionization mode detection under the following conditions: source parameters, […], 15; auxiliary gas, 5; spray voltage, 3.2 kV; capillary temperature, 275° C.; and m/z range for MS recorded generally between 150 and 900. For all products, the indicated parent ions corresponded to [M+H]^+.
# [2] = test system: corticosterone-induced depression model; test: Coat state, corticosterone-induced depression; format: in vivo, mice; conditions: both time points; i.p. daily: I-1 0.1 mg/kg/day, fluoxetine 15 mg/kg/day or both
# Procedure: Corticosterone-induced depression. […] The experimental scheme is represented on FIG. 1A. Coat state. The coat state of each animal was assessed weekly as a measure of motivation toward self-care. It was evaluated as the sum of the score of different parts of the body, ranging between 0 for a well-groomed coat and 1 for an unkempt coat for head, neck, dorsal/ventral coat, tail and forepaws/hindpaws (FIG. 1B).
# [3] = test system: corticosterone-induced depression model; test: Sucrose preference test, corticosterone-induced depression; format: in vivo, mice; conditions: i.p. daily: I-1 0.1 mg/kg/day, fluoxetine 15 mg/kg/day or both
# Procedure: Corticosterone-induced depression. […] The experimental scheme is represented on FIG. 1A. Sucrose preference test. Singled-house mice were first habituated for 48 h to drink water from two bottles.
# [4] = test system: corticosterone-induced depression model; test: Elevated O-maze test, corticosterone-induced depression; format: in vivo, mice; conditions: after 21 days; i.p. daily: I-1 0.1 mg/kg/day, fluoxetine 15 mg/kg/day or both
# Procedure: Corticosterone-induced depression. […] The experimental scheme is represented on FIG. 1A. Elevated O-maze test. The elevated O-maze consisted of an annular runway positioned 40 cm above the floor and divided into two opposing 90° closed sectors and two 90° open sectors. The mice were individually placed in the closed sector and their behavior recorded over a 5-min period. The time spent in each sector and the number of sector entries (a sector entry was defined as all four of the paws being placed in a sector) were determined by video tracking (Viewpoint, Lyon, France) (FIGS. 1D and 1E).
# [5] = test system: corticosterone-induced depression model; test: Social interaction test, corticosterone-induced depression; format: in vivo, mice; conditions: 21 days of treatment; compared to corticosterone
# Procedure: (§1) Corticosterone-induced depression. […] The experimental scheme is represented on FIG. 1A. Social interaction test. The social interaction test was performed in a white open-field (42×42 cm) containing an empty wire mesh cage (10×6.5 cm) located at an extremity of the field in a low luminosity environment (25 lux). Each test mouse was allowed to explore the openfield for two consecutive sessions of 2.5 min. During the second session, an unfamiliar mouse was introduced into the cage. Between the two sessions, the test mouse was placed back into its home cage for approximately one minute. The time spent by the test mouse in the interaction zone, defined as an 8-cm-wide region surrounding the mesh cage, was measured in both sessions by video tracking (Viewpoint, Lyon, France) (FIGS. 1G and 1I).
# [6] = test system: corticosterone-induced depression model; test: Open-field test, corticosterone-induced depression; format: in vivo, mice
# Procedure: (§2) Corticosterone-induced depression. To induce a chronic depression-like state, individually housed mice were administered corticosterone ([…]; Sigma-Aldrich) dissolved in 0.45% (wt/vol) hydroxypropyl-b-cyclodextrin (Sigma-Aldrich) as in (Bacq et al., Mol. Psychiatry, 2012, 17, 926-939). […] The mice were tested successively for coat sate, sucrose consumption, elevated O-maze, object location test and social interaction, before antidepressant treatment, and after 10 days and 3 weeks of treatment. The experimental scheme is represented on FIG. 1A.
# Open-field test. The open field consisted of a white Plexiglas field (100×100×30 cm) with the center brightly illuminated (500 lux). General locomotor activity in the center and periphery of the open field were scored for 9 min. The time and number of entries in the center zone (60×60 cm) were evaluated as an index of anxiety-related response (FIG. 2B).
# [7] = Effect on weight, corticosterone-induced depression; format: in vivo, mice; conditions: weight measured daily; I-1 0.1 mg/kg/day, fluoxetine 15 mg/kg/day or both, i.p.
# Procedure: Corticosterone-induced depression. […] The experimental scheme is represented on FIG. 1A. Effect on weight. The weight of tested mice was measured daily in the morning (FIG. 2D).
# [8] = test system: social defeat model; test: Social defeat model, social interaction test; format: in vivo, mice; conditions: after 3 weeks of treatment; fluoxetine 17 mg/kg, compound (I-1) 0.1 mg/kg as printed
# Procedure: as §1, with “Social defeat model. For social defeat, 8-week-old C57Bl/6J mice were submitted to social defeat stress for 10 consecutive days as described (Berton et al., Science, 2006, 311(5762), 864-8).” for “Corticosterone-induced depression.”, “1H.” for “1A.”
# [9] = Acute administration: locomotor activity and anxiety level; format: in vivo
# [10] = Forced swim test, acute administration; format: in vivo
# [11] = mouse, in vivo
# Procedure: as §2
# Blood parameter evaluation. Blood was collected in lithium heparin after the 3 weeks of treatment. Hemograms were performed with a Siemens ADVIAZ 120 apparatus. For biochemistry, blood was centrifuged at 2000 g for 10 min at +4° C. and supernatant was analyzed with a COBAS 6000 (Roche) apparatus.
# [12] = test system: autophagy and proteasome pathways in the brain; test: Toxicity: cell death pathways in the brain, Western blots; conditions: mouse, in vivo
# Procedure: as §2
# Cell death pathways in the brain—Western blots. […] Samples were homogenized by sonication in 2 vol of ice-cold phosphate-buffered saline containing 1% Triton X-100, protease inhibitors (Complete Protease Inhibitor Cocktail, Roche Diagnostics, Basel, Switzerland) and phosphatase inhibitors (Phosphatase Inhibitor Cocktail 3; Sigma-Aldrich). Protein concentrations were determined by Bradford's method. Proteins samples (15 μg) suspended in NuPage LDS sample buffer (Invitrogen, Carlsbad, Calif., USA) were separated by Bis-Tris sodium dodecyl sulfate polyacrylamide gel electrophoresis (10% gels) and transferred onto nitrocellulose membranes (Invitrogen). Transfer efficacy was controlled by Ponceau S staining. Unspecific binding sites were blocked in Tris-buffered saline containing 0.1% Tween-20 and 5% nonfat milk and membranes were immunoprobed with antibodies against β-actin ( 1/2500) and β-catenin ( 1/300) from Sigma-Aldrich or LC3B ( 1/5000) from Abcam. Membranes were incubated with infrared-labeled secondary antibodies (IRDye 700DX and IRDye 800CW; 1/5000; Rockland, Gilbertsvillle, Pa., USA). Immunoblotting was quantified with the Odyssey Infrared Imaging System and Application Software version 3.0 (LI-COR Biosciences, Lincoln, Nebr., USA).
# [13] = compared to fluoxetine-treated and fluoxetine plus compound (I-1) treated groups
compound,measurement,setting,value
"COc1ccc2c(c1)CC/C(=C/c1cc[n+](C(C)C)c3ccccc13)N2C(C)C [Compound I-1, (Z)-1-isopropyl-4-((1-isopropyl-6-methoxy-3,4-dihydroquinolin-2(1H)-ylidene)methyl)quinolin-1-ium Iodide]",metabolisation on incubation with microsomes,[1],led to the metabolisation
same,coat state,[2],improved coat state at both time points
same,sucrose preference,[3]; 11 days of treatment,significantly increased sucrose preference at 11 days
same,sucrose preference,[3]; 21 days of treatment,significantly increased sucrose preference at 21 days
same,latency to enter the open zone of the elevated O-maze,[4],decreased the latency to enter this zone
same,time in the open zone of the elevated O-maze,[4],increased the time in the open zone
same,interaction time in social interaction test,[5],significant effects on interaction time
same,locomotor activity at the periphery of the open field,"[6]; compared to corticosterone, I-1 0.1 mg/kg/day, fluoxetine 15 mg/kg/day or both, i.p.",significant effect; also recorded: restored normal locomotor activity
same,locomotor activity in the center of the open field,[6]; [13],significant increase
same,time in the center of the open field,[6]; [13],significant increase
same,effect on weight,[7],no significant effect; also recorded: did not decrease weight
same,reversal of social aversion (time in interaction zone with target),[8],not by compound (I-1)
same,anxiety level,[9],no effect
same,locomotor activity,[9],no effect
same,immobility time in the forced swim test,[10],moderate but reproducible lowering (antidepressant-like) action
same,ALP,[11],53.3 ± 2.2 U/L
same,ALT,[11],49.5 ± 4.2 U/L
same,AST,[11],164.8 ± 6.2 U/L
same,Creatinine,[11],0.43 ± 0.06 mg/dL
same,Hematies,[11],8.96 ± 0.5 T/L
same,Leucocytes,[11],2.89 ± 0.4 g/L
same,Platelets,[11],254.1 ± 56.5
same,Total bilirubin,[11],0.12 ± 0.01 mg/dL
same,Urea,[11],61.7 ± 1.9 mg/dL
same,hepatotoxicity compared with fluoxetine,[11],less hepatotoxicity
same,LC3II/LC3I ratios,[12],comparable LC3II/LC3I ratios
same,autophagy and proteasome pathways in the brain,[12],does not alter autophagy and proteasome pathways in the brain
same,β-catenin levels,[12],comparable
